Test results from patent US20030086873A1, “Myocardial imaging agent and preparation method thereof” (priority 2001, published 2003).

Tests used:
[1] = Dynamic SPECT imaging and biological distribution in dogs after intravenous injection; assay type: in vivo; conditions: for Heart biological distribution / Kidneys biological distribution / Liver biological distribution / Lungs biological distribution: i.v.
Description: Dogs were intravenously injected with [^99mTc(CO)3(MIBI)3]^+ or [^99mTc(MIBI)6][…]at dose of […]. Immediately following injection, dynamic photography for up to 120 min was performed using a Toshiba GCA 7200A two-probe SPECT and a low energy parallel aperture regular collimator. Time—radioactivity curves were also collected for the heart, liver, lungs, and kidneys. Target/non-target radioactivity ratios were calculated, and fall body imaging was performed separately at different times. The biological distributions of the imaging agents in the body were analyzed. Vein blood samples were collected separately at different times, and the dynamics of the blood clearance was analyzed. Flat myocardial imaging was conducted separately at different times, with myocardial tomographic imaging at 120 minutes post injection.

[2] = Biological distribution in the bodies of Kunming mice after caudal vein injection; assay type: in vivo
Description: The complexes [^99mTc(CO)3(OH2)3]^+ and [^99mTc(CO)3(MIBI)3]^+ prepared in Example 1 were separately injected in the caudal vein of Kunming mice. The experiment was conducted on three mice within each time period, and the injection's activity was 925 KBq. The radioactivity of individual organs's tissue was measured at 5, 15, 30, and 60 minutes after the injection, and the results are represented by radioactive uptake rate per gram of tissue.
The results of the distribution of [^99mTc(CO)3(OH2)3]^+ in the mice's bodies are included in Tables 2; the results for [^99mTc(CO)3(MIBI)3]^+ are presented in Table 3. The value “% ID/g” is the percentage of the injection's total radioactivity that each gram of tissue accounts for i.e., the radioactive uptake rate per gram of tissue, with ID standing for “injected dose.”

[C-]#[N+]CC(C)(C)OC.[C-]#[N+]CC(C)(C)OC.[C-]#[N+]CC(C)(C)OC.[C-]#[N+]CC(C)(C)OC.[C-]#[N+]CC(C)(C)OC.[C-]#[N+]CC(C)(C)OC.[Tc] [[^99mTc(MIBI)6]^+, reference compound]
Target/Non-Target Uptake Ratio Heart/Kidneys ([1]; 2 Minutes): 0.39 | Target/Non-Target Uptake Ratio Heart/Liver ([1]; 2 Minutes): 0.83 | Target/Non-Target Uptake Ratio Heart/Lungs ([1]; 2 Minutes): 2.35 | Target/Non-Target Uptake Ratio Heart/Kidneys ([1]; 5 Minutes): 0.48 | Target/Non-Target Uptake Ratio Heart/Liver ([1]; 5 Minutes): 0.83 | Target/Non-Target Uptake Ratio Heart/Lungs ([1]; 5 Minutes): 2.48 | Target/Non-Target Uptake Ratio Heart/Kidneys ([1]; 10 Minutes): 0.59 | Target/Non-Target Uptake Ratio Heart/Liver ([1]; 10 Minutes): 0.77 | Target/Non-Target Uptake Ratio Heart/Lungs ([1]; 10 Minutes): 2.66 | Target/Non-Target Uptake Ratio Heart/Kidneys ([1]; 20 Minutes): 0.45 | Target/Non-Target Uptake Ratio Heart/Liver ([1]; 20 Minutes): 0.85 | Target/Non-Target Uptake Ratio Heart/Lungs ([1]; 20 Minutes): 2.8 | Target/Non-Target Uptake Ratio Heart/Kidneys ([1]; 30 Minutes): 0.43 | Target/Non-Target Uptake Ratio Heart/Liver ([1]; 30 Minutes): 0.86 | Target/Non-Target Uptake Ratio Heart/Lungs ([1]; 30 Minutes): 2.68 | Target/Non-Target Uptake Ratio Heart/Kidneys ([1]; 40 Minutes): 0.43 | Target/Non-Target Uptake Ratio Heart/Liver ([1]; 40 Minutes): 0.87 | Target/Non-Target Uptake Ratio Heart/Lungs ([1]; 40 Minutes): 2.7 | Target/Non-Target Uptake Ratio Heart/Kidneys ([1]; 60 Minutes): 0.43 | Target/Non-Target Uptake Ratio Heart/Liver ([1]; 60 Minutes): 0.84 | Target/Non-Target Uptake Ratio Heart/Lungs ([1]; 60 Minutes): 2.84 | Target/Non-Target Uptake Ratio Heart/Kidneys ([1]; 90 Minutes): 0.46 | Target/Non-Target Uptake Ratio Heart/Liver ([1]; 90 Minutes): 0.8 | Target/Non-Target Uptake Ratio Heart/Lungs ([1]; 90 Minutes): 2.84 | Target/Non-Target Uptake Ratio Heart/Kidneys ([1]; 120 Minutes): 0.45 | Target/Non-Target Uptake Ratio Heart/Liver ([1]; 120 Minutes): 0.8 | Target/Non-Target Uptake Ratio Heart/Lungs ([1]; 120 Minutes): 2.73 | Heart biological distribution ([1]; 20 Minutes): 3.2 % ID/g | Kidneys biological distribution ([1]; 20 Minutes): 14.3 % ID/g | Liver biological distribution ([1]; 20 Minutes): 21.0 % ID/g | Lungs biological distribution ([1]; 20 Minutes): 6.3 % ID/g | Heart biological distribution ([1]; 30 Minutes): 3.5 % ID/g | Kidneys biological distribution ([1]; 30 Minutes): 3.2 % ID/g | Liver biological distribution ([1]; 30 Minutes): 10.3 % ID/g | Lungs biological distribution ([1]; 30 Minutes): 6.5 % ID/g | Heart biological distribution ([1]; 40 Minutes): 2.9 % ID/g | Kidneys biological distribution ([1]; 40 Minutes): 12.3 % ID/g | Liver biological distribution ([1]; 40 Minutes): 24.4 % ID/g | Lungs biological distribution ([1]; 40 Minutes): 6.3 % ID/g | Heart biological distribution ([1]; 60 Minutes): 3.3 % ID/g | Kidneys biological distribution ([1]; 60 Minutes): 12.7 % ID/g | Liver biological distribution ([1]; 60 Minutes): 25.1 % ID/g | Lungs biological distribution ([1]; 60 Minutes): 5.5 % ID/g | Heart biological distribution ([1]; 90 Minutes): 3.2 % ID/g | Kidneys biological distribution ([1]; 90 Minutes): 13.2 % ID/g | Liver biological distribution ([1]; 90 Minutes): 22.8 % ID/g | Lungs biological distribution ([1]; 90 Minutes): 6.2 % ID/g | Heart biological distribution ([1]; 120 Minutes): 3.5 % ID/g | Kidneys biological distribution ([1]; 120 Minutes): 12.1 % ID/g | Liver biological distribution ([1]; 120 Minutes): 25.2 % ID/g | Lungs biological distribution ([1]; 120 Minutes): 5.2 % ID/g | Liver time-radioactivity curve relative to the myocardial curve ([1]; in words): higher than the myocardial curve | Target/Non-Target Uptake Ratio Heart/Blood ([2]; 5 Minutes): 12.80 | Target/Non-Target Uptake Ratio Heart/Liver ([2]; 5 Minutes): 0.94 | Target/Non-Target Uptake Ratio Heart/Lungs ([2]; 5 Minutes): 2.87 | Target/Non-Target Uptake Ratio Heart/Blood ([2]; 15 Minutes): 35.09 | Target/Non-Target Uptake Ratio Heart/Liver ([2]; 15 Minutes): 0.76 | Target/Non-Target Uptake Ratio Heart/Lungs ([2]; 15 Minutes): 6.08 | Target/Non-Target Uptake Ratio Heart/Blood ([2]; 30 Minutes): 89.04 | Target/Non-Target Uptake Ratio Heart/Liver ([2]; 30 Minutes): 0.90 | Target/Non-Target Uptake Ratio Heart/Lungs ([2]; 30 Minutes): 9.07 | Target/Non-Target Uptake Ratio Heart/Blood ([2]; 60 Minutes): 134.15 | Target/Non-Target Uptake Ratio Heart/Liver ([2]; 60 Minutes): 1.04 | Target/Non-Target Uptake Ratio Heart/Lungs ([2]; 60 Minutes): 12.25

[^99mTc(CO)3(OH2)3]^+ [reference compound]
Blood radioactive uptake per gram of tissue ([2]; 5 Minutes after injection): 9.27 ± 1.13 % ID/g | Bones radioactive uptake per gram of tissue ([2]; 5 Minutes after injection): 2.82 ± 0.95 % ID/g | Brain radioactive uptake per gram of tissue ([2]; 5 Minutes after injection): 0.31 ± 0.09 % ID/g | Heart radioactive uptake per gram of tissue ([2]; 5 Minutes after injection): 2.68 ± 0.88 % ID/g | Kidneys radioactive uptake per gram of tissue ([2]; 5 Minutes after injection): 18.29 ± 4.22 % ID/g | Liver radioactive uptake per gram of tissue ([2]; 5 Minutes after injection): 10.33 ± 0.82 % ID/g | Lungs radioactive uptake per gram of tissue ([2]; 5 Minutes after injection): 6.53 ± 1.41 % ID/g | Muscles radioactive uptake per gram of tissue ([2]; 5 Minutes after injection): 1.47 ± 0.37 % ID/g | Spleen radioactive uptake per gram of tissue ([2]; 5 Minutes after injection): 2.02 ± 1.02 % ID/g | Blood radioactive uptake per gram of tissue ([2]; 15 Minutes after injection): 6.04 ± 0.73 % ID/g | Bones radioactive uptake per gram of tissue ([2]; 15 Minutes after injection): 1.68 ± 0.22 % ID/g | Brain radioactive uptake per gram of tissue ([2]; 15 Minutes after injection): 0.27 ± 0.03 % ID/g | Heart radioactive uptake per gram of tissue ([2]; 15 Minutes after injection): 2.39 ± 0.66 % ID/g | Kidneys radioactive uptake per gram of tissue ([2]; 15 Minutes after injection): 14.25 ± 1.78 % ID/g | Liver radioactive uptake per gram of tissue ([2]; 15 Minutes after injection): 11.95 ± 0.66 % ID/g | Lungs radioactive uptake per gram of tissue ([2]; 15 Minutes after injection): 5.38 ± 0.76 % ID/g | Muscles radioactive uptake per gram of tissue ([2]; 15 Minutes after injection): 1.46 ± 0.48 % ID/g | Spleen radioactive uptake per gram of tissue ([2]; 15 Minutes after injection): 2.38 ± 0.37 % ID/g | Blood radioactive uptake per gram of tissue ([2]; 30 Minutes after injection): 5.79 ± 0.66 % ID/g | Bones radioactive uptake per gram of tissue ([2]; 30 Minutes after injection): 2.38 ± 0.54 % ID/g | Brain radioactive uptake per gram of tissue ([2]; 30 Minutes after injection): 0.29 ± 0.06 % ID/g | Heart radioactive uptake per gram of tissue ([2]; 30 Minutes after injection): 2.39 ± 0.56 % ID/g | Kidneys radioactive uptake per gram of tissue ([2]; 30 Minutes after injection): 13.88 ± 1.02 % ID/g | Liver radioactive uptake per gram of tissue ([2]; 30 Minutes after injection): 10.83 ± 1.68 % ID/g | Lungs radioactive uptake per gram of tissue ([2]; 30 Minutes after injection): 5.37 ± 0.78 % ID/g | Muscles radioactive uptake per gram of tissue ([2]; 30 Minutes after injection): 1.66 ± 0.61 % ID/g | Spleen radioactive uptake per gram of tissue ([2]; 30 Minutes after injection): 2.94 ± 0.69 % ID/g | Blood radioactive uptake per gram of tissue ([2]; 60 Minutes after injection): 4.50 ± 0.72 % ID/g | Bones radioactive uptake per gram of tissue ([2]; 60 Minutes after injection): 1.65 ± 0.12 % ID/g | Brain radioactive uptake per gram of tissue ([2]; 60 Minutes after injection): 0.22 ± 0.03 % ID/g | Heart radioactive uptake per gram of tissue ([2]; 60 Minutes after injection): 2.08 ± 0.31 % ID/g | Kidneys radioactive uptake per gram of tissue ([2]; 60 Minutes after injection): 12.28 ± 2.32 % ID/g | Liver radioactive uptake per gram of tissue ([2]; 60 Minutes after injection): 10.73 ± 0.90 % ID/g | Lungs radioactive uptake per gram of tissue ([2]; 60 Minutes after injection): 5.19 ± 1.18 % ID/g | Muscles radioactive uptake per gram of tissue ([2]; 60 Minutes after injection): 1.37 ± 0.80 % ID/g | Spleen radioactive uptake per gram of tissue ([2]; 60 Minutes after injection): 3.20 ± 0.80 % ID/g | Specific concentration in tissues / heart ([2]; in words): no specific concentration | Radioactive retention ([2]; within 60 minutes, in words): good radioactive retention
